Source: patent publication US20070275382A1, “Biomarkers for the Efficacy of Somatostatin Analogue Treatment” (priority 2003, published 2007)
*1 amine or outer side, *2 acyl side, *3 side chain or, on linkers, in order; H or OH if unused. Where a SMILES comes first, the peptide text is derived from it. Side-chain parts run from the residue outwards. [ ]: non-standard residue; d: D form. The star is where a group is joined. Ethylenediamine = C(CN[*:2])N[*:1]; Hyp = O=C(O)[CH]1C[CH](O)CN1; Phg = N[CH](C(=O)O)c1ccccc1; CO = O=C([*:1])[*:2]; Bn = c1ccc(C*)cc1

System: Brown fat
Assay: Microarray gene expression profiling (HG-U95A), brown fat
Format: in vivo, cynomolgus monkeys
Experimental: Origin of tissue and processing. Male and female cynomolgus monkeys received subcutaneously pasireotide (100 μg/animal/day) or the vehicle for 14 days. On day 15, all animals were sacrificed and tissues for RNA extraction were immediately snap-frozen and kept at −80° C. until processing.
RNA expression profiling was conducted by means of the HG-U95A gene expression probe array (Affymetrix; Santa Clara, Calif. USA), containing more than 12,600 probe sets interrogating primarily full-length human genes and also some control probe sets. The experiment was conducted according to the recommendations of the manufacturer. Briefly, total RNA was obtained by acid guanidinium thiocyanate-phenol-chloroform extraction (Trizol®, Invitrogen Life Technologies, San Diego, Calif. USA) from each frozen tissue section. The total RNA was then purified on an affinity resin (Rneasy®, Qiagen) and quantified. Double stranded cDNA was synthesized with a starting amount of approximately 5 μg full-length total RNA using the Superscript® Choice System (Invitrogen Life Technologies, Carlsbad, Calif. USA) in the presence of a T7-(dT)24 DNA oligonucleotide primer. Following synthesis, the cDNA was purified by phenol/chloroform/isoamyl alcohol extraction and ethanol precipitation. The purified cDNA was then transcribed in vitro using the BioArray® High Yield RNA Transcript Labeling Kit (ENZO, Farmingdale, N.Y. USA) in the presence of biotinylated ribonucleotides form biotin labelled cRNA. The labelled cRNA was then purified on an affinity resin (Rneasy®, Qiagen), quantified and fragmented. An amount of approximately 10 μg labelled cRNA was hybridized for 16 hours at 45° C. to an expression probe array. The array was then washed and stained twice with streptavidin-phycoerythrin (Molecular Probes,) using the GeneChip® Fluidics Workstation 400 (Affymetrix, Santa Clara, Calif. USA). The array was then scanned twice using a confocal laser scanner (GeneArray® Scanner, Agilent, Palo Alto, Calif. USA) resulting in one scanned image. This resulting “.dat-file” was processed using the MAS4 program (Affymetrix) into a “.cel-file”. The “.cel file” was captured and loaded into the Affymetrix GeneChip® Laboratory Information Management System (LIMS). The LIMS database is connected to a UNIX Sun Solaris server through a network filing system that allows for the average intensities for all probes cells (CEL file) to be downloaded into an Oracle database (NPGN). Raw data was converted to expression levels using a “target intensity” of 150. The data were evaluated for quality control and loaded in the GeneSpring® software 4.2.4 (Silicon Genetics, Calif. USA) for analysis.
On the human Affymetrix HGU95Av2 chip, probe sets for individual genes contain 20 oligonucleotide pairs, each composed of a “perfect match” 25-mer and a “mismatch” 25-mer differing from the “perfect” match oligonucleotide at a single base. After probe labelling, hybridization, and laser scanning, the expression level was estimated by averaging the differences in signal intensity measured by oligonucleotide pairs of a given probe (AvgDiff value). The fold changes and directions were calculated for selected genes, from the differences of the AvgDiff values between controls and treated.
To identify genes that were impacted by pasireotide, the dataset was initially filtered to exclude in a first wave of analysis, genes whose values were systematically in the lower expression ranges where the experimental noise is high (at least 80 in a number of experiments corresponding to the smallest number of replicas of any experimental point). In a second round of selection a threshold p-value of 0.05 (based on a t-test) identified differences between treated and control based on a two component error model (Global Error Model) and, whenever possible, with a stepdown correction for multi-hypothesis testing (Benjamini and Hochberg false discovery rate). […]

[1] = ↑ vs control, 100 μg/animal/day s.c., 14 days
[2] = ↓ vs control, 100 μg/animal/day s.c., 14 days

NCCCCC1NC(=O)C(Cc2c[nH]c3ccccc23)NC(=O)C(c2ccccc2)NC(=O)C2CC(OC(=O)NCCN)CN2C(=O)C(Cc2ccccc2)NC(=O)C(Cc2ccc(OCc3ccccc3)cc2)NC1=O (stereo not drawn) [Pasireotide, cyclo[4-(NH2—C2H4—NH—CO—O)Pro-Phg-DTrp-Lys-Tyr(4-Bzl)-Phe]] (cyclo(F[Hyp]([CO-Ethylenediamine])[Phg]WKY(Bn)); configuration not given here)
IGF-1 expression level, AvgDiff (range) (0.1 mg/animal/14day): 389 (315 to 449) | IGFBP 4 expression level, AvgDiff (range) (0.1 mg/animal/14day): 763 (429 to 1058) | IRS 2 expression level, AvgDiff (range) (0.1 mg/animal/14day): 146 (80 to 222) | SSTR3 expression level, AvgDiff (range) (0.1 mg/animal/14day): 194 (87 to 248) | Adrenergic, β-3-, receptor transcript fold change [1]: receptor ↑ x2.5 | Apotosis-associated tyrosine kinase transcript fold change [1]: tyrosine kinase ↑ x3.5 | CD2 antigen (cytoplasmic tail)-binding protein 2 transcript fold change [1]: binding protein 2 ↑ x2.5 | CSF 3 receptor (granulocyte) transcript fold change [1]: (granulocyte) ↑ x3 | Ca++ channel, voltage dependent, α 1H subunit transcript fold change [1]: ↑ x3 | Cadherin 5, VE-cadherin (vascular epithelium) transcript fold change [1]: epithelium) ↑ x3 | Cyclin T2 transcript fold change [1]: Cyclin T2 ↑ x2.5 | Dopamine receptor D3 transcript fold change [1]: ↑ x2.5 | Dual specificity PP MKP-5 transcript fold change [1]: MKP-5 ↑ x2.5 | Endothelial differentiation, sphingolipid G-protein-coupled receptor, 5 transcript fold change [1]: ↑ x2.5 | FSHR transcript fold change [1]: FSHR ↑ x2.5 | Follistatin-like 3 glycoprotein transcript fold change [1]: glycoprotein ↑ x3 | G protein-activated inwardly rectifying K+ channel transcript fold change [1]: channel ↑ x3.5 | GLUR, metabotropic 1 transcript fold change [1]: ↑ x2 | Guanine nucleotide binding protein (G protein), β polypeptide 3 transcript fold change [1]: ↑ x2.5 | IFN induced transmembrane protein 1 transcript fold change [1]: 1 ↑ x2.5 | IL 3 (CSF, multiple) transcript fold change [1]: ↑ x2 | IL 5R, α transcript fold change [1]: IL 5R, α↑ x2.5 | IL 7R precursor transcript fold change [1]: IL 7R precursor ↑ x2 | IRS (insulin receptor substrate) 2 transcript fold change [1]: substrate) 2 ↑ x2.5 | Oxytocin, prepro-(neurophysin I) transcript fold change [1]: (neurophysin I) ↑ x2.5 | PI glycan, class L transcript fold change [1]: x3.5 | PLC β 4 transcript fold change [1]: PLC β 4 ↑ x2 | PP 5, catalytic subunit transcript fold change [1]: ↑ x2.5 | T3 receptor transcript fold change [1]: T3 receptor ↑ x2 | TGF β 3 transcript fold change [1]: TGF β 3 ↑ x2.5 | TGF β-activated kinase-binding protein 1 transcript fold change [1]: ↑ x2.5 | VGF nerve growth factor inducible transcript fold change [1]: factor inducible ↑ x2 | Actin related protein 2/3 complex, subunit 1A (41 kD) transcript fold change [2]: (41 kD) ↓ x2.5 | CSF 1 (macrophage) transcript fold change [2]: ↓ x2 | Cadherin 13, H-cadherin (heart) transcript fold change [2]: cadherin (heart) ↓ x2 | Cadherin F1B1 transcript fold change [2]: Cadherin F1B1 ↓ x4 | Calcium/calmodulin-dependent protein kinase I transcript fold change [2]: kinase I ↓ x3.5 | Capping protein (actin filament), gelsolin-like transcript fold change [2]: ↓ x2.5 | Coagulation factor XIIIAI subunit precursor transcript fold change [2]: ↓ x5 | EGF receptor pathway substrate 15 transcript fold change [2]: substrate 15 ↓ x2 | Endothelial cell GF 1 (platelet derived) transcript fold change [2]: (platelet derived) ↓ x2 | Extra spindle poles, S. cerevisiae, homologue of transcript fold change [2]: of ↓ x2.5 | Fms-related tyrosine kinase 1 (VEGF/vascular permeability factor receptor) transcript fold change [2]: factor receptor) ↓ x4.5 | G1 to S phase transition transcript fold change [2]: transition ↓ x1.5 | G protein-coupled receptor 1 transcript fold change [2]: receptor 1 ↓ x2.5 | G α inhibiting activity polypeptide 3 interacting protein transcript fold change [2]: protein ↓ x5 | IFNγ-inducible protein 30 (IP30) transcript fold change [2]: 30 (IP30) ↓ x3.5 | IGF-1 transcript fold change [2]: IGF-1 ↓ x1.5 | IGF-binding protein 4 transcript fold change [2]: ↓ x2 | Neuroblastoma apoptosis-related RNA binding protein transcript fold change [2]: binding protein ↓ x3 | Neuroblastoma transcript fold change [2]: Neuroblastoma ↓ x2.5 | PCNA transcript fold change [2]: PCNA ↓ x2.5 | PI glycan, class F transcript fold change [2]: PI glycan, class F ↓ x2 | PI-3-kinase. regulatory subunit, polypeptide 2 (p85 β) transcript fold change [2]: (p85 β) ↓ x3.5 | PP 2, regulatory subunit B (B56), γ isoform transcript fold change [2]: isoform ↓ x1.5 | Pentaxin-related gene, rapidly induced by IL-1 transcript fold change [2]: ↓ x7.5 | THR interactor 10 transcript fold change [2]: ↓ x3 | THR interactor 12 transcript fold change [2]: ↓ x1.5 | TNF type 1 receptor associated protein transcript fold change [2]: associated protein ↓ x2
